Laboratory results as given in PubChem BioAssay AID328 (DTP/NCI, 2004).
Values joined by “and” are separate entries in the source; they are usually repeats but may differ in a detail not shown here. Identical values can stand only once. Toxic doses and inconclusive results are not listed.

System: BDF1 mice, P388 leukemia ip, median survival T/C
Test: NCI In Vivo Anticancer Drug Screen. Data for tumor model P388 Leukemia (intraperitoneal) in B6D2F1 (BDF1) mice
Conditions: endpoint: median survival time, higher = longer survival
Method in brief: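 Read-out is survival of treated animals expressed relative to the vehicle group, as a T/C ratio.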

[1] = dose: 25.0 mg/kg/injection, schedule: Q01DX009 (ip), vehicle: saline
[2] = dose: 50.0 mg/kg/injection, schedule: Q01DX009 (ip), vehicle: saline
[3] = dose: 100.0 mg/kg/injection, schedule: Q01DX009 (ip), vehicle: saline
[4] = dose: 100.0 mg/kg/injection, schedule: Q01DX009 (ip), vehicle: Klucel (hydroxypropylcellulose) (HPC)
[5] = dose: 200.0 mg/kg/injection, schedule: Q01DX009 (ip), vehicle: Klucel (hydroxypropylcellulose) (HPC)
[6] = dose: 400.0 mg/kg/injection, schedule: Q01DX009 (ip), vehicle: Klucel (hydroxypropylcellulose) (HPC)
[7] = dose: 50.0 mg/kg/injection, schedule: Q01DX009 (ip), vehicle: Klucel (hydroxypropylcellulose) (HPC)
[8] = dose: 12.5 mg/kg/injection, schedule: Q01DX009 (ip), vehicle: Klucel (hydroxypropylcellulose) (HPC)
[9] = dose: 25.0 mg/kg/injection, schedule: Q01DX009 (ip), vehicle: saline with Tween-80
[10] = dose: 50.0 mg/kg/injection, schedule: Q01DX009 (ip), vehicle: saline with Tween-80
[11] = dose: 100.0 mg/kg/injection, schedule: Q01DX009 (ip), vehicle: saline with Tween-80
[12] = dose: 100.0 mg/kg/injection, schedule: Q04DX003 (ip), vehicle: Klucel (hydroxypropylcellulose) (HPC)

## Cn1ccc(=O)c2cc([N+](=O)[O-])ccc21
dose: 12.5 mg/kg/injection, schedule: Q01DX009 (ip), vehicle: water
  T/C: 94 % of control
dose: 25.0 mg/kg/injection, schedule: Q01DX009 (ip), vehicle: water
  T/C: 111 % of control
dose: 25.0 mg/kg/injection, schedule: Q04DX003 (ip), vehicle: water
  T/C: 102 % of control
dose: 50.0 mg/kg/injection, schedule: Q01DX009 (ip), vehicle: water
  T/C: 93 % of control
dose: 50.0 mg/kg/injection, schedule: Q04DX003 (ip), vehicle: water
  T/C: 100 % of control
dose: 100.0 mg/kg/injection, schedule: Q01DX009 (ip), vehicle: water
  T/C: 94 % of control
dose: 100.0 mg/kg/injection, schedule: Q04DX003 (ip), vehicle: water
  T/C: 109 % of control
dose: 200.0 mg/kg/injection, schedule: Q01DX009 (ip), vehicle: water
  T/C: 93 % of control
dose: 200.0 mg/kg/injection, schedule: Q04DX003 (ip), vehicle: water
  T/C: 92 % of control
dose: 300.0 mg/kg/injection, schedule: Q01DX009 (ip), vehicle: water
  T/C: 113 % of control

## Nc1cc(Cl)cc(Cl)c1C(=O)O
dose: 100.0 mg/kg/injection, schedule: Q01DX001 (ip), vehicle: other
  T/C: 95 % of control
dose: 200.0 mg/kg/injection, schedule: Q01DX001 (ip), vehicle: other
  T/C: 100 % of control
dose: 400.0 mg/kg/injection, schedule: Q01DX001 (ip), vehicle: other
  T/C: 95 % of control

## CC(=N\O)/C(C)=N/O.CC(=N\O)/C(C)=N/O.[Cl][Co][Cl]
dose: 6.25 mg/kg/injection, schedule: Q01DX009 (ip), vehicle: saline
  T/C: 90 % of control and 99 % of control
dose: 12.5 mg/kg/injection, schedule: Q01DX009 (ip), vehicle: saline
  T/C: 100 % of control
[1]
  T/C: 99 % of control
[2]
  T/C: 94 % of control and 110 % of control
[3]
  T/C: 91 % of control and 110 % of control
dose: 200.0 mg/kg/injection, schedule: Q01DX009 (ip), vehicle: saline
  T/C: 100 % of control

## O=C(OCC#CC#CCOC(=O)c1cccc2ccccc12)c1cccc2ccccc12
[4]
  T/C: 100 % of control
[5]
  T/C: 95 % of control
[6]
  T/C: 105 % of control

## Cc1ccc(C(=O)/C=C/c2ccccc2O)cc1
[7]
  T/C: 99 % of control
[4]
  T/C: 109 % of control
[5]
  T/C: 107 % of control
[6]
  T/C: 101 % of control

## CCC1(C(C)Br)OC2=C(CC(C#N)(C#N)C(C#N)(C#N)C2)O1 (stereo not drawn)
dose: 12.0 mg/kg/injection, schedule: Q01DX001 (ip), vehicle: Klucel (hydroxypropylcellulose) (HPC)
  T/C: 116 % of control
dose: 25.0 mg/kg/injection, schedule: Q01DX001 (ip), vehicle: Klucel (hydroxypropylcellulose) (HPC)
  T/C: 104 % of control
dose: 50.0 mg/kg/injection, schedule: Q01DX001 (ip), vehicle: Klucel (hydroxypropylcellulose) (HPC)
  T/C: 100 % of control

## COC(=O)Nc1cccc(-c2nc3ccc(NC(=O)OC)cc3c(=O)n2-c2ccccc2)c1
dose: 6.25 mg/kg/injection, schedule: Q01DX009 (ip), vehicle: Klucel (hydroxypropylcellulose) (HPC)
  T/C: 108 % of control
[8]
  T/C: 117 % of control
[1]
  T/C: 150 % of control
dose: 25.0 mg/kg/injection, schedule: Q01DX009 (oral), vehicle: Klucel (hydroxypropylcellulose) (HPC)
  T/C: 107 % of control
[7]
  T/C: 213 % of control
[2]
  T/C: 155 % of control
dose: 50.0 mg/kg/injection, schedule: Q01DX009 (oral), vehicle: Klucel (hydroxypropylcellulose) (HPC)
  T/C: 109 % of control
[3]
  T/C: 186 % of control
dose: 100.0 mg/kg/injection, schedule: Q01DX009 (oral), vehicle: Klucel (hydroxypropylcellulose) (HPC)
  T/C: 109 % of control
dose: 800.0 mg/kg/injection, schedule: Q01DX009 (oral), vehicle: Klucel (hydroxypropylcellulose) (HPC)
  T/C: 155 % of control

## CC(=O)N1C(=O)NC(=O)C1(C)c1ccco1 (stereo not drawn)
[9]
  T/C: 122 % of control
[10]
  T/C: 112 % of control
[11]
  T/C: 103 % of control and 122 % of control
dose: 100.0 mg/kg/injection, schedule: Q04DX003 (ip), vehicle: saline with Tween-80
  T/C: 109 % of control and 113 % of control
dose: 200.0 mg/kg/injection, schedule: Q01DX009 (ip), vehicle: saline with Tween-80
  T/C: 92 % of control and 115 % of control
dose: 200.0 mg/kg/injection, schedule: Q04DX003 (ip), vehicle: saline with Tween-80
  T/C: 104 % of control and 122 % of control
dose: 400.0 mg/kg/injection, schedule: Q01DX009 (ip), vehicle: saline with Tween-80
  T/C: 87 % of control
dose: 400.0 mg/kg/injection, schedule: Q04DX003 (ip), vehicle: saline with Tween-80
  T/C: 90 % of control

## NC(CSCc1ccc(N(CCCl)CCCl)cc1)C(=O)O (stereo not drawn)
dose: 1.2 mg/kg/injection, schedule: Q04DX003 (ip), vehicle: Klucel (hydroxypropylcellulose) (HPC)
  T/C: 95 % of control
dose: 2.6 mg/kg/injection, schedule: Q04DX003 (ip), vehicle: Klucel (hydroxypropylcellulose) (HPC)
  T/C: 154 % of control
dose: 4.0 mg/kg/injection, schedule: Q01DX009 (ip), vehicle: saline with Tween-80
  T/C: 183 % of control
dose: 6.0 mg/kg/injection, schedule: Q01DX009 (ip), vehicle: saline with Tween-80
  T/C: 206 % of control
dose: 6.0 mg/kg/injection, schedule: Q04DX003 (ip), vehicle: Klucel (hydroxypropylcellulose) (HPC)
  T/C: 154 % of control
dose: 9.0 mg/kg/injection, schedule: Q01DX009 (ip), vehicle: saline with Tween-80
  T/C: 223 % of control
dose: 13.0 mg/kg/injection, schedule: Q04DX003 (ip), vehicle: Klucel (hydroxypropylcellulose) (HPC)
  T/C: 190 % of control
dose: 20.0 mg/kg/injection, schedule: Q04DX003 (ip), vehicle: Klucel (hydroxypropylcellulose) (HPC)
  T/C: 204 % of control
dose: 22.0 mg/kg/injection, schedule: Q01DX009 (ip), vehicle: Klucel (hydroxypropylcellulose) (HPC)
  T/C: 272 % of control
dose: 30.0 mg/kg/injection, schedule: Q04DX003 (ip), vehicle: Klucel (hydroxypropylcellulose) (HPC)
  T/C: 238 % of control and 272 % of control
dose: 33.0 mg/kg/injection, schedule: Q01DX009 (ip), vehicle: Klucel (hydroxypropylcellulose) (HPC)
  T/C: 231 % of control
dose: 44.0 mg/kg/injection, schedule: Q04DX003 (ip), vehicle: Klucel (hydroxypropylcellulose) (HPC)
  T/C: 238 % of control
[7]
  T/C: 240 % of control and 250 % of control
dose: 67.0 mg/kg/injection, schedule: Q04DX003 (ip), vehicle: Klucel (hydroxypropylcellulose) (HPC)
  T/C: 235 % of control and 223 % of control
dose: 75.0 mg/kg/injection, schedule: Q01DX009 (ip), vehicle: Klucel (hydroxypropylcellulose) (HPC)
  T/C: 104 % of control
[12]
  T/C: 220 % of control
dose: 150.0 mg/kg/injection, schedule: Q04DX003 (ip), vehicle: Klucel (hydroxypropylcellulose) (HPC)
  T/C: 160 % of control

## C[N+](C)(C)Cc1ccccc1
dose: 25.0 mg/kg/injection, schedule: Q04DX003 (ip), vehicle: saline with Tween-80
  T/C: 95 % of control
dose: 50.0 mg/kg/injection, schedule: Q04DX003 (ip), vehicle: saline with Tween-80
  T/C: 112 % of control

## CCN1c2ccccc2C(Cl)(c2ccc(N(C)C)cc2)c2ccccc21
dose: 3.75 mg/kg/injection, schedule: Q01DX009 (ip), vehicle: saline
  T/C: 118 % of control
dose: 6.25 mg/kg/injection, schedule: Q04DX003 (ip), vehicle: saline
  T/C: 100 % of control
dose: 7.5 mg/kg/injection, schedule: Q01DX009 (ip), vehicle: saline
  T/C: 118 % of control
dose: 12.5 mg/kg/injection, schedule: Q04DX003 (ip), vehicle: saline
  T/C: 116 % of control
dose: 25.0 mg/kg/injection, schedule: Q04DX003 (ip), vehicle: saline
  T/C: 116 % of control

## CC(C)(C)C(O)CC(C)(O)C(C)(C)C (stereo not drawn)
dose: 6.3 mg/kg/injection, schedule: Q01DX009 (ip), vehicle: Klucel (hydroxypropylcellulose) (HPC)
  T/C: 101 % of control
[8]
  T/C: 107 % of control
dose: 25.0 mg/kg/injection, schedule: Q01DX009 (ip), vehicle: Klucel (hydroxypropylcellulose) (HPC)
  T/C: 108 % of control

## CCOC(=O)/C(C#N)=C\C=C\c1ccccc1
[12]
  T/C: 86 % of control
dose: 200.0 mg/kg/injection, schedule: Q04DX003 (ip), vehicle: Klucel (hydroxypropylcellulose) (HPC)
  T/C: 90 % of control
dose: 400.0 mg/kg/injection, schedule: Q04DX003 (ip), vehicle: Klucel (hydroxypropylcellulose) (HPC)
  T/C: 90 % of control

## CC(C)CNC(c1ccc2c(c1)OCO2)C(O)c1ccc2c(c1)OCO2 (stereo not drawn)
dose: 100.0 mg/kg/injection, schedule: Q01DX001 (ip), vehicle: saline with Tween-80
  T/C: 100 % of control
dose: 200.0 mg/kg/injection, schedule: Q01DX001 (ip), vehicle: saline with Tween-80
  T/C: 115 % of control
dose: 400.0 mg/kg/injection, schedule: Q01DX001 (ip), vehicle: saline with Tween-80
  T/C: 108 % of control

## CC1C=CCC(C)(C)C1 (stereo not drawn)
[9]
  T/C: 104 % of control
[10]
  T/C: 100 % of control
[11]
  T/C: 100 % of control and 113 % of control
